One compound from US20250221987A1, “PIPERAZINO RING-CONTAINING DERIVATIVE, PHARMACEUTICALLY ACCEPTABLE SALT THEREOF, PREPARATION METHOD THEREFOR, AND APPLICATION THEREOF” (ACERAND THERAPEUTICS (HONG KONG) LIMITED, priority 2022, published 2025) can be followed below.

Data set [1] has as its target PARP2 (Homo sapiens (Human), UniProt Q9UGN5). Kind of data set: PARP2 enzymatic activity assay. Type of data set: biochemical. The conditions noted are these: final PARP2 1.5 nM, Biotin-NAD+ 2 μM, 60 minutes.
Data set [2] deals with MDA-MB-436 cells. Kind of data set: Proliferation activity assay of MDA-MB-436 cells (CellTiter-Glo). The conditions noted are these: Homo sapiens, MDA-MB-436, 144 h; 4000 cells seeded, 6 days incubation; read-out: MDA-MB-436 proliferation inhibition IC50. Type of data set: cell-based. The method, then:
Complete culture medium was prepared and mixed thoroughly. The cells were resuscitated and cultured for about two passages to select a cell line in good growth condition. The cell culture flask was removed from the incubator. Cell adherence: the culture medium was aspirated, then the cells were washed once with trypsin to discard the waste liquid, and 3 mL of fresh trypsin was added to the culture flask for digestion. When the cells were loose to be detached from the wall of the flask, 8 mL of complete culture medium was added thereto to stop trypsin digestion and mixed gently. The cell suspension was transferred to a centrifuge tube with a pipette and centrifuged at 1000 rpm for 5 minutes. The supernatant was discarded. An appropriate volume of culture medium was added to the centrifuge tube and pipetted gently to resuspend the cells evenly. The cells were counted using a Vi-Cell XR cell counter. The cell suspension was adjusted to an appropriate concentration. The cell suspension was added to a 96-well plate at 100 µL/well. The details such as cell name, seeding density, and date were labelled, and the culture plate was placed in a CO2 incubator overnight.
The compound to be tested was prepared into a 10 mM stock solution, which was aliquoted and stored in a −20° C. freezer. The compound solution was added to a 96-well plate using HPD300. The plate was incubated in a CO2 incubator for a total of 6 days.
CellTiter-Glo buffer was melted at room temperature. The lyophilized CellTiter-Glo substrate was equilibrated to room temperature. CellTiter-Glo buffer was added to the CellTiter Glo substrate and mixed thoroughly. A cell plate was taken out and equilibrated to room temperature. 100 μL of mixed CellTiter Glo reagent was added to each well, and the mixture was shaken in the dark for 10 minutes, followed by incubation for 20 minutes. The culture plate was placed into an Enspire reading plate, and the luminescence reading results were recorded. […] A pharmacodynamic inhibition rate curve was plotted by using XLFit, and the IC50 value was calculated. The 4-parameter model [fit=(A+((B−A)/(1+((C/x)^D)))] was used.

A short description of data set [3]: Pharmacokinetic study in ICR (CD-1) mice. The data set is classed as in vivo. The conditions noted are these: male ICR (CD-1) mice, tail vein 1 mg/kg, oral 3 mg/kg groups, plasma. How it is done: ICR (CD-1) male mice, 3 mice per group. One group of mice was injected with the compound to be tested via the tail vein at a dose of 1 mg/kg. The other group of mice was administered the compound to be tested via single-dose oral administration at a dose of 3 mg/kg. In the tail vein injection group, blood was collected from the saphenous vein at 5 minutes, 15 minutes, 30 minutes, 1 hour, 2 hours, 4 hours, 8 hours, and 24 hours post-administration. In the single-dose oral administration group, blood was collected at 15 minutes, 30 minutes, 1 hour, 2 hours, 4 hours, 8 hours, and 24 hours post-administration. The collected blood was placed in an EDTA-K2 anticoagulant tube, and 30 μL of whole blood was collected at each time point. Immediately after collection, blood samples were placed on wet ice for centrifugation. Samples would be centrifuged (maintained at 4600 rpm for 5 minutes at 4° C.) within 30 minutes to obtain plasma. The plasma sample was placed into a test tube (a target of 12 to 20 μL) for analysis. […] of plasma was added with 5 μL of MeOH, then added with 200 μL of MeOH/ACN solution containing 5 ng/mL of ISTD (Terfenadine), mixed well with shaking, and centrifuged at 4000 rpm for 15 minutes. The supernatant was diluted 5-fold with MeOH/water (1:1, v/v, 0.1% FA), and loaded to LC-MS/MS for quantification of plasma concentration by analytical methods and calculation of pharmacokinetic parameters.

Data set [4] concerns the target PARP1 (Homo sapiens (Human), UniProt P09874). Kind of data set: PARP1 enzymatic activity assay. The data set is classed as biochemical. The method, then: 2) After the coating was completed, the coating buffer was discarded.
After washing, the blocking buffer was discarded.
4) 1000× compound was prepared. 1 μL of compound was transferred to a 96-well plate containing 199 μL of reaction buffer (50 mM Tris-HCl (pH 7.5), 0.005% Tween-20, 0.01% BSA) and mixed well.
5) 25/10×PARP1-DNA solution was prepared with reaction buffer.
6) 25/10×NAD+ solution was prepared with reaction buffer.
8) Primary antibody was 2000-fold diluted with the blocking buffer. 20 μL of primary antibody was added to the reaction plate, which was incubated at room temperature for 1.5 hours.
9) The primary antibody was discarded.
10) Secondary antibody was 2000-fold diluted with the blocking buffer.
11) The secondary antibody was discarded.
The chemiluminescence value RLU was read with Envision.

Chain of PARP1 (P09874 whole entry): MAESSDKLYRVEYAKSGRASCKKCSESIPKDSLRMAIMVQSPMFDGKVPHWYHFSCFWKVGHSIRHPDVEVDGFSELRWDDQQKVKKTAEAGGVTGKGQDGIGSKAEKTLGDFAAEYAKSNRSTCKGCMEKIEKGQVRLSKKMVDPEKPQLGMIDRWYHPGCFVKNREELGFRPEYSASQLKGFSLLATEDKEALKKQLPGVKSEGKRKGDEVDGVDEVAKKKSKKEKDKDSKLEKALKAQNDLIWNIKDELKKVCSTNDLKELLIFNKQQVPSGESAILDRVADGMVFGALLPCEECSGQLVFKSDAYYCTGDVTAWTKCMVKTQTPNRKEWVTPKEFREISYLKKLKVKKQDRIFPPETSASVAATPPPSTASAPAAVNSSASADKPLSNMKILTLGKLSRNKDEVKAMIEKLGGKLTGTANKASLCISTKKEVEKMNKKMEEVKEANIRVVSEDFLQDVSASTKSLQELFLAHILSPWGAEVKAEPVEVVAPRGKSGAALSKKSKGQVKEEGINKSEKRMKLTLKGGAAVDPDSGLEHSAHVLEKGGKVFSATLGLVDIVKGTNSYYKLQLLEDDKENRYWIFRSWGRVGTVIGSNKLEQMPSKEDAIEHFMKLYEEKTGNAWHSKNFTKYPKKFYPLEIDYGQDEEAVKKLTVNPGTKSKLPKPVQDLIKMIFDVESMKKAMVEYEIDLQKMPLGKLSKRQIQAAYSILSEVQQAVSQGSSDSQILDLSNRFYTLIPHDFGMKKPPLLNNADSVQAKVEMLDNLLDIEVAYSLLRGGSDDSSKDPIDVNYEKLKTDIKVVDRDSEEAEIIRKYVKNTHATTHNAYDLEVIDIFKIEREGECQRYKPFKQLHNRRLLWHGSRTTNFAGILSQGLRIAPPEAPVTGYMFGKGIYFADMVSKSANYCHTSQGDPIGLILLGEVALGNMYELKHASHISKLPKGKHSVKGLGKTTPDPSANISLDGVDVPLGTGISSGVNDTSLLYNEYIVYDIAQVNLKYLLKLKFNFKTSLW
Chain of PARP2 (Q9UGN5 whole entry): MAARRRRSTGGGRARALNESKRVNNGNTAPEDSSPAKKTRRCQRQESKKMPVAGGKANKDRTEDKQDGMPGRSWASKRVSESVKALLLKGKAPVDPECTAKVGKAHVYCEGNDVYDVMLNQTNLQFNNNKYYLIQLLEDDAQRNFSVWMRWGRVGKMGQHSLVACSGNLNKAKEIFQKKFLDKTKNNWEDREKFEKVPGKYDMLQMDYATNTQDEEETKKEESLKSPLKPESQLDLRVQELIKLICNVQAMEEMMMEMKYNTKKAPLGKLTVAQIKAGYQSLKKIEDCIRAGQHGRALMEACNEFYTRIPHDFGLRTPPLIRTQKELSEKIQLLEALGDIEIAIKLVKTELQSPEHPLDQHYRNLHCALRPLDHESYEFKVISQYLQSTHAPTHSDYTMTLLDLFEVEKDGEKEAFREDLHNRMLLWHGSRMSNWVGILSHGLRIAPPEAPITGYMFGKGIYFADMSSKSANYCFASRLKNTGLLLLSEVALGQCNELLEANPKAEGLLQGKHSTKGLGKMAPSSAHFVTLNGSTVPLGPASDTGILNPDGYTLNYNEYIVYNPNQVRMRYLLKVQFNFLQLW

With `CNC(=O)c1ccc(N2CCN(Cc3cnc4cc(C(F)(F)F)c(=O)[nH]c4c3)[C@H]3CC[C@H]32)cn1` [Example 30-2, N-methyl-5-((1R,6S)-5-((6-oxo-7-(trifluoromethyl)-5,6-dihydro-1,5-naphthyridin-3-yl)methyl)-2,5-diazabicyclo[4.2.0]octan-2-yl)picolinamide], the IC50 in data set [1] turned out to be 47 nM; in data set [2] it was 1 nM; in data set [4] (final PARP1 0.02 nM, DNA 0.8 nM, NAD+ 3.5 μM, 60 minutes), 1.2 nM. In addition, in data set [3], the “Clearance” value turned out to be 1.62 mL/h/kg. The half-life in data set [3] (mouse, read-out: Half-life t1/2 (converted)) is 47.6 h. The “PARP1/PARP2 inhibition Selectivity multiple N (N = IC50 (PARP2)/IC50 (PARP1))” value in data set [4] (ratio IC50 (PARP2)/IC50 (PARP1)) was 39.
